In patent US7951829B2, “Benzimidazole modulators of VR1” (Janssen Pharmaceutica NV, priority 2006, dated 2011):

Molecular target: T1, hVR1 (Homo sapiens, UniProt Q8NER1)
T1 construct: expressed in transfected cells; host or cells: HEK293
Assay: Human VR1 (hVR1) Functional Assay (FLIPR intracellular calcium, capsaicin challenge)
Assay type: cell-based
Details: capsaicin 0.030 μM, HEK293 cells expressing hVR1; for inhibition at 1 µM: test concentration 1 μM

T1 sequence (Q8NER1 whole entry): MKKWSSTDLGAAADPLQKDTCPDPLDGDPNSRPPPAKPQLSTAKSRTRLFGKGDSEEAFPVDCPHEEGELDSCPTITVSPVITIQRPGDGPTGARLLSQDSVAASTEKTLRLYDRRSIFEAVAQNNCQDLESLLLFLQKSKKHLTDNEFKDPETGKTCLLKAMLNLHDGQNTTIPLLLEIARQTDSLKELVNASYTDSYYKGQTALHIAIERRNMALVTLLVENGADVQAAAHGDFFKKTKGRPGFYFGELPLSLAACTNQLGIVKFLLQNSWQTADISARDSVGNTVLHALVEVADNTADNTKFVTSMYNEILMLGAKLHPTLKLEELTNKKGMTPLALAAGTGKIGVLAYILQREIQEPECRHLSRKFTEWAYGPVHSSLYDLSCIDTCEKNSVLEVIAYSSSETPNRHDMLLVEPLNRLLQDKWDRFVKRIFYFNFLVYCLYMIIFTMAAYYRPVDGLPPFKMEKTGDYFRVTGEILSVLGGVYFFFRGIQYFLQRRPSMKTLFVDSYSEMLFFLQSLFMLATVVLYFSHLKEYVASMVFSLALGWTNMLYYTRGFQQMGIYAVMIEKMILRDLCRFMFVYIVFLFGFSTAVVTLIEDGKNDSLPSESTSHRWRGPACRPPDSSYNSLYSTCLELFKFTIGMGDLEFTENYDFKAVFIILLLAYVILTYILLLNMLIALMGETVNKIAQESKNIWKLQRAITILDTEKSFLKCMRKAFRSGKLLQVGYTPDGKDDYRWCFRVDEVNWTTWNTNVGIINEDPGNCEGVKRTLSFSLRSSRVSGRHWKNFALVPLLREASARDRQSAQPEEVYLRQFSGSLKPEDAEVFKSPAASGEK

SMILES: CC(C)(O)c1ccccc1-c1ccc2[nH]c(C#Cc3ccccc3)nc2c1 [Cpd 489, 2-[2-(2-phenylethynyl-1H-benzimidazol-5-yl)-phenyl]-propan-2-ol]
- IC50: 2 nM
- inhibition at 1 µM: 96%

SMILES: CNS(=O)(=O)c1ccccc1-c1ccc2[nH]c(/C=C/c3cccc(Cl)c3F)nc2c1 [Cpd 335, (E)-2-{2-[2-(3-chloro-2-fluoro-phenyl)-vinyl]-1H-benzimidazol-5-yl}-N-methyl-benzenesulfonamide]
- IC50: 47 nM
- inhibition at 1 µM: 100%

SMILES: CC(C)(C)c1ccc(/C=C/c2nc3cc(-c4ccccc4O)c(C(F)(F)F)cc3[nH]2)cc1 [Cpd 48, (E)-2-{2-[2-(4-tert-butyl-phenyl)-vinyl]-6-trifluoromethyl-1H-benzimidazol-5-yl}-phenol]
- inhibition at 1 µM: 33%

SMILES: NS(=O)(=O)c1ccccc1-c1ccc2[nH]c(/C=C/c3ccc(F)c(F)c3)nc2c1 [Cpd 358, (E)-2-{2-[2-(3,4-difluoro-phenyl)-vinyl]-1H-benzimidazol-5-yl}-benzenesulfonamide]
- IC50: 9 nM
- inhibition at 1 µM: 99%

SMILES: CS(=O)(=O)c1ccc(/C=C/c2nc3cc(-c4ccccc4S(N)(=O)=O)ccc3[nH]2)cc1 [Cpd 85, (E)-2-{2-[2-(4-methanesulfonyl-phenyl)-vinyl]-1H-benzimidazol-5-yl}-benzenesulfonamide]
- inhibition at 1 µM: 16%

SMILES: CS(=O)(=O)Nc1ccccc1-c1ccc2[nH]c(/C=C/c3ccc(C(F)(F)F)c(F)c3)nc2c1 [Cpd 417, (E)-N-(2-{2-[2-(3-fluoro-4-trifluoromethyl-phenyl)-vinyl]-1H-benzimidazol-5-yl}-phenyl)-methanesulfonamide]
- IC50: 11 nM
- inhibition at 1 µM: 100%

SMILES: NS(=O)(=O)c1ccccc1-c1ccc2[nH]c(CCc3cc(C(F)(F)F)cc(C(F)(F)F)c3)nc2c1 [Cpd 387, 2-{2-[2-(3,5-bis-trifluoromethyl-phenyl)-ethyl]-1H-benzimidazol-5-yl}-benzenesulfonamide]
- IC50: 41 nM
- inhibition at 1 µM: 98%

SMILES: CS(=O)(=O)Nc1ccccc1-c1cc2nc(/C=C/c3ccc(C(F)(F)F)cc3)[nH]c2cc1F [Cpd 65, (E)-N-(2-{6-fluoro-2-[2-(4-trifluoromethyl-phenyl)-vinyl]-1H-benzimidazol-5-yl}-phenyl)-methanesulfonamide]
- inhibition at 1 µM: 0%

SMILES: CC(C)(O)c1ccccc1-c1ccc2[nH]c([C@@H]3C[C@H]3c3ccc(C(F)(F)F)cc3)nc2c1 [Cpd 501, 2-(2-{2-[(1R,2R)-2-(4-trifluoromethyl-phenyl)-cyclopropyl]-1H-benzimidazol-5-yl}-phenyl)-propan-2-ol]
- IC50: 85 nM
- inhibition at 1 µM: 99%

SMILES: NS(=O)(=O)c1ccccc1-c1ccc2[nH]c([C@@H]3C[C@H]3c3ccc(C(F)(F)F)cc3)nc2c1 [Cpd 502, 2-{2-[(1R,2R)-2-(4-trifluoromethyl-phenyl)-cyclopropyl]-1H-benzimidazol-5-yl}-benzenesulfonamide]
- IC50: 190 nM
- inhibition at 1 µM: 82%

SMILES: CC(C)(O)c1ccccc1-c1ccc2[nH]c(C#Cc3cccc(C(F)(F)F)c3)nc2c1 [Cpd 294, 2-{2-[2-(3-trifluoromethyl-phenylethynyl)-1H-benzimidazol-5-yl]-phenyl}-propan-2-ol]
- IC50: 9.1 nM
- inhibition at 1 µM: 101%

SMILES: NS(=O)(=O)c1ccccc1-c1ccc2[nH]c(CCc3ccccc3F)nc2c1 [Cpd 419, 2-{2-[2-(2-fluoro-phenyl)-ethyl]-1H-benzimidazol-5-yl}-benzenesulfonamide]
- IC50: 32 nM
- inhibition at 1 µM: 93%

SMILES: NS(=O)(=O)c1ccccc1-c1ccc2[nH]c(CCc3ccc(F)c(F)c3F)nc2c1 [Cpd 384, 2-{2-[2-(2,3,4-trifluoro-phenyl)-ethyl]-1H-benzimidazol-5-yl}-benzenesulfonamide]
- IC50: 7 nM
- inhibition at 1 µM: 98%

SMILES: CC(C)(C)OC(=O)Nc1ccccc1-c1cc2nc(/C=C/c3ccc(C(C)(C)C)cc3)[nH]c2cc1C(F)(F)F [Cpd 54, (E)-(2-{2-[2-(4-tert-butyl-phenyl)-vinyl]-6-trifluoromethyl-1H-benzimidazol-5-yl}-phenyl)-carbamic acid tert-butyl ester]
- inhibition at 1 µM: 20%

SMILES: NS(=O)(=O)c1ccccc1-c1ccc2[nH]c(/C=C/c3cc(F)cc(F)c3)nc2c1 [Cpd 361, (E)-2-{2-[2-(3,5-difluoro-phenyl)-vinyl]-1H-benzimidazol-5-yl}-benzenesulfonamide]
- IC50: 27 nM
- inhibition at 1 µM: 97%

SMILES: OCc1ccccc1-c1cc2nc(/C=C/c3ccc(C(F)(F)F)cc3)[nH]c2cc1F [Cpd 61, (E)-(2-{6-fluoro-2-[2-(4-trifluoromethyl-phenyl)-vinyl]-1H-benzimidazol-5-yl}-phenyl)-methanol]
- IC50: 75 nM
- inhibition at 1 µM: 100%

SMILES: NS(=O)(=O)c1ccc(F)cc1-c1ccc2[nH]c(/C=C/c3ccc(C(F)(F)F)cc3)nc2c1 [Cpd 441, (E)-4-fluoro-2-{2-[2-(4-trifluoromethyl-phenyl)-vinyl]-1H-benzimidazol-5-yl}-benzenesulfonamide]
- inhibition at 1 µM: 40%

SMILES: CNS(=O)(=O)c1ccccc1-c1ccc2[nH]c(/C=C/c3cc(F)c(F)cc3F)nc2c1 [Cpd 324, (E)-N-methyl-2-{2-[2-(2,4,5-trifluoro-phenyl)-vinyl]-1H-benzimidazol-5-yl}-benzenesulfonamide]
- IC50: 33 nM
- inhibition at 1 µM: 98%

SMILES: CC(C)(O)c1ccccc1-c1ccc2[nH]c(/C=C/c3ccc4ncccc4c3)nc2c1 [Cpd 449, (E)-2-{2-[2-(2-quinolin-6-yl-vinyl)-1H-benzimidazol-5-yl]-phenyl}-propan-2-ol]
- IC50: 9 nM
- inhibition at 1 µM: 100%

SMILES: CNS(=O)(=O)c1ccccc1-c1ccc2[nH]c(/C=C/c3ccccc3Br)nc2c1 [Cpd 348, (E)-2-{2-[2-(2-bromo-phenyl)-vinyl]-1H-benzimidazol-5-yl}-N-methyl-benzenesulfonamide]
- IC50: 162 nM
- inhibition at 1 µM: 86%

SMILES: NS(=O)(=O)c1ccccc1-c1ccc2[nH]c(/C=C/c3ccc4ccccc4c3)nc2c1 [Cpd 433, (E)-2-[2-(2-naphthalen-2-yl-vinyl)-1H-benzimidazol-5-yl]-benzenesulfonamide]
- IC50: 10 nM
- inhibition at 1 µM: 98%

SMILES: CS(=O)(=O)c1ccccc1-c1ccc2[nH]c(/C=C/c3ccc(C(F)(F)F)cc3)nc2c1 [Cpd 422, (E)-5-(2-methanesulfonyl-phenyl)-2-[2-(4-trifluoromethyl-phenyl)-vinyl]-1H-benzimidazole]
- IC50: 7 nM
- inhibition at 1 µM: 98%

SMILES: CS(=O)(=O)Nc1ccccc1-c1ccc2[nH]c(/C=C/c3ccc(C(F)(F)F)cc3F)nc2c1 [Cpd 418, (E)-N-(2-{2-[2-(2-fluoro-4-trifluoromethyl-phenyl)-vinyl]-1H-benzimidazol-5-yl}-phenyl)-methanesulfonamide]
- IC50: 18 nM
- inhibition at 1 µM: 100%

SMILES: CS(=O)(=O)Nc1ccccc1-c1ccc2[nH]c(/C=C/c3ccc(S(C)(=O)=O)cc3)nc2c1 [Cpd 83, (E)-N-(2-{2-[2-(4-methanesulfonyl-phenyl)-vinyl]-1H-benzimidazol-5-yl}-phenyl)-methanesulfonamide]
- IC50: > 500 nM

SMILES: CNS(=O)(=O)c1ccccc1-c1ccc2[nH]c(/C=C/c3ccc(F)c(F)c3F)nc2c1 [Cpd 323, (E)-N-methyl-2-{2-[2-(2,3,4-trifluoro-phenyl)-vinyl]-1H-benzimidazol-5-yl}-benzenesulfonamide]
- IC50: 40 nM
- inhibition at 1 µM: 97%

SMILES: CNS(=O)(=O)c1ccccc1-c1ccc2[nH]c(/C=C/c3cc(F)cc(C(F)(F)F)c3)nc2c1 [Cpd 322, (E)-2-{2-[2-(3-fluoro-5-trifluoromethyl-phenyl)-vinyl]-1H-benzimidazol-5-yl}-N-methyl-benzenesulfonamide]
- IC50: 14 nM
- inhibition at 1 µM: 101%

SMILES: NS(=O)(=O)c1ccccc1-c1ccc2[nH]c(CCc3ccc(F)c(F)c3)nc2c1 [Cpd 393, 2-{2-[2-(3,4-difluoro-phenyl)-ethyl]-1H-benzimidazol-5-yl}-benzenesulfonamide]
- IC50: 10 nM
- inhibition at 1 µM: 98%

SMILES: NS(=O)(=O)c1ccccc1-c1ccc2[nH]c(/C=C/c3ccccc3)nc2c1 [Cpd 426, (E)-2-(2-styryl-1H-benzimidazol-5-yl)-benzenesulfonamide]
- IC50: 22 nM
- inhibition at 1 µM: 99%

SMILES: NS(=O)(=O)c1ccccc1-c1ccc2[nH]c(CCc3cccc(OC(F)(F)F)c3)nc2c1 [Cpd 391, 2-{2-[2-(3-trifluoromethoxy-phenyl)-ethyl]-1H-benzimidazol-5-yl}-benzenesulfonamide]
- IC50: 8 nM
- inhibition at 1 µM: 95%

SMILES: CNS(=O)(=O)c1ccccc1-c1ccc2[nH]c(/C=C/c3ccc(Cl)cc3)nc2c1 [Cpd 347, (E)-2-{2-[2-(4-chloro-phenyl)-vinyl]-1H-benzimidazol-5-yl}-N-methyl-benzenesulfonamide]
- IC50: 44 nM
- inhibition at 1 µM: 100%

SMILES: NS(=O)(=O)c1ccccc1-c1ccc2[nH]c(/C=C/c3cccc(OC(F)(F)F)c3)nc2c1 [Cpd 362, (E)-2-{2-[2-(3-trifluoromethoxy-phenyl)-vinyl]-1H-benzimidazol-5-yl}-benzenesulfonamide]
- IC50: 8 nM
- inhibition at 1 µM: 99%

SMILES: NC(=O)c1ccccc1-c1ccc2[nH]c(/C=C/c3ccc(OC(F)(F)F)cc3)nc2c1 [Cpd 19, (E)-2-{2-[2-(4-trifluoromethoxy-phenyl)-vinyl]-1H-benzimidazol-5-yl}-benzamide]
- inhibition at 1 µM: 32%

SMILES: CC(C)(C)c1ccc(/C=C/c2nc3cc(-c4ccccc4N)ccc3[nH]2)cc1 [Cpd 11, (E)-2-{2-[2-(4-tert-butyl-phenyl)-vinyl]-1H-benzimidazol-5-yl}-phenylamine]
- IC50: 210 nM
- inhibition at 1 µM: 100%

SMILES: Cn1c(/C=C/c2ccc(C(F)(F)F)cc2)nc2cc(-c3ccccc3NS(C)(=O)=O)ccc21 [Cpd 477, (E)-N-(2-{1-methyl-2-[2-(4-trifluoromethyl-phenyl)-vinyl]-1H-benzimidazol-5-yl}-phenyl)-methanesulfonamide]
- inhibition at 1 µM: 44%

SMILES: CNS(=O)(=O)c1ccccc1-c1ccc2[nH]c(/C=C/c3cc(C(F)(F)F)cc(C(F)(F)F)c3)nc2c1 [Cpd 333, (E)-2-{2-[2-(3,5-bis-trifluoromethyl-phenyl)-vinyl]-1H-benzimidazol-5-yl}-N-methyl-benzenesulfonamide]
- IC50: 27 nM
- inhibition at 1 µM: 98%
